Patent US20230150924A1, “NOVEL COMPOUND HAVING CANCER METASTASIS INHIBITORY ACTIVITY, PREPARATION METHOD THEREFOR, AND PHARMACEUTICAL COMPOSITION FOR INHIBITING CANCER METASTASIS AND INVASION OR TREATING COLORECTAL CANCER, COMPRISING COMPOUND” (CELLGENTEK CO., LTD., priority 2019, published 2023)
Where “and” joins values, the source holds several entries; their conditions need not be identical. Equal values may be shown once.

Assays:
KAI1 promoter = KAI1 promoter luciferase reporter assay in transfected Caco2 cells; type: cell-based, human; conditions: Homo sapiens, Caco-2, 16 h, 1 μM compound, 16 hours, transfected Caco2 cells, luciferase activity relative to DMSO control (=1); read-out: Relative KAI promoter activity
Protocol: Experiments were conducted to evaluate the metastasis-related promoter activity-increasing effects of the compounds according to the present invention. Specifically, the KAI1 promoter reporter vector was used. In this case, the pRL-TK vector, a vector expressing renilla luciferase, was used as an internal control indicating the transfection efficiency in each transfected well.
First, 24 hours before transfection, 2×10^6 human colon cancer cell line, Caco2) cells were cultured in 10 ml of DMEM containing 10% FBS and 1% penicillin/streptomycin on a 100-mm-diameter plate, and then transformed with 5 μg of a pRL-TK vector mixture containing a transfection reagent and the KAI1 promoter, and then cultured in a 5% CO2 incubator at 37° C. for 48 hours. Thereafter, the adherent cells were detached using trypsin and counted using a hemacytometer, and then 5×10^3 transfected Caco2 cells in 100 μl of DMEM containing 10% FBS and 1% penicillin/streptomycin were seeded into each well of a 96-well plate and cultured in a 5% CO2 incubator at 37° C. for 24 hours. Next, 1 μM of each of the 305 compounds prepared in Examples 1 to 305 was added to each well, and after 16 hours, 100 μl of a lysis buffer for analysis containing a luciferase substrate was added, and the cells were lysed with stirring for 20 minutes. After completion of lysis, the cells were measured for luciferase activity using a luciferase reporter assay system (Promega, USA). […] In addition, data were analyzed at a significance level of p<0.05 by one-way ANOVA (Tukey's HSD), and SPSS 17.0 (Chicago, USA) statistical program was used. In Table 14 to 20, PHA is the PHA-665752, and KIT is KITENIN.

[1] = tested on: invasion of colorectal cancer cells; assay: In vivo relative invation (invasion; EV and KITENIN controls, no method described); conditions: relative to EV (=1); KIT = KITENIN

Compound | fold induction at 1 µM (KAI1 promoter) | In vivo relative invation [1]
COCC(=O)N1CCC(Oc2ccccc2C(=O)NCC(=O)c2ccccc2)CC1 [Example 178, 2-((1-(2-methoxyacetyl)piperidin-4-yl)oxy)-N-(2-oxo-2-phenylethyl)benzamide] | 0.91 | 1.228
COCC(=O)NCC(=O)c1ccc(Cl)cc1 [Example 65, N-(2-(4-chlorophenyl)-2-oxoethyl)-2-methoxyacetamide] | 0.84 | 1.191
O=C(CNC(=O)c1ccccc1OC1CCN(S(=O)(=O)c2ccc(F)cc2)CC1)c1ccccc1 [Example 184, 2-((1-((4-fluorophenyl)sulfonyl)piperidin-4-yl)oxy)-N-(2-oxo-2-phenylethyl)benzamide] | 0.98 | 1.114
CN(C)C(=O)N1CCC(Oc2ccccc2C(=O)NCC(=O)c2ccccc2)CC1 [Example 180, N,N-dimethyl-4-(2-((2-oxo-2-phenylethyl)carbamoyl)phenoxy) piperidine-1-carboxamide] | 1.09 | 1.253
Cc1ccc(S(=O)(=O)NCC(=O)c2ccccc2)cc1 [Example 27, 4-methyl-N-(2-oxo-2-phenylethyl)benzenesulfonamide] | 1.31 | 1.044
CN(C)Cc1ccccc1C(=O)NCC(=O)c1ccccc1 [Example 296, 2-((dimethylamino)methyl)-N-(2-oxo-2-phenylethyl)benzamide] | 1.53 | 1.026
COc1cccc(C(=O)CNC(=O)c2ccc(Cl)cc2)c1 [Example 122, 4-chloro-N-(2-(3-methoxyphenyl)-2-oxoethyl)benzamide] | 1.65 | 1.374
COc1cccc(C(=O)CNC(=O)c2cccc(CN3CCN(c4ccccc4OC)CC3)c2)c1 [Example 282, N-(2-(3-methoxyphenyl)-2-oxoethyl)-3-((4-(2-methoxyphenyl)piperazin-1-yl)methyl)benzamide] | 1.47 | 1.214
O=C(CNC(=O)c1ccccc1OC1CCN(C(=O)c2ccc(F)cc2)CC1)c1ccccc1 [Example 154, 2-((1-(4-fluorobenzoyl)piperidin-4-yl)oxy)-N-(2-oxo-2-phenylethyl)benzamide] | 1.05 | 1.173
O=C(CNC(=O)c1cc(C(F)(F)F)cc(C(F)(F)F)c1)c1ccc(Cl)cc1 [Example 72, N-(2-(4-chlorophenyl)-2-oxoethyl)-3,5-bis(trifluoromethyl)benzamide] | 0.8 | 1.044
O=C(COc1ccccc1C(=O)NCC(=O)c1ccccc1)NC1CCCCC1 [Example 230, 2-(2-(cyclohexylamino)-2-oxoethoxy)-N-(2-oxo-2-phenylethyl)benzamide] | 1.08 | 1.267
O=C(COc1ccccc1C(=O)NCC(=O)c1ccccc1)Nc1ccc(F)c([N+](=O)[O-])c1 [Example 211] | 1.44 | 0.8699
KITENIN |  | 1.419 and 1.156 and 1.58 and 1.288 and 1.205 and 1.369
Cc1cccc(C(=O)NCC(=O)c2ccc(N(C)C)cc2)c1 [Example 98, N-(2-(4-(dimethylamino)phenyl)-2-oxoethyl)-3-methylbenzamide] | 2.64 | 1.121
O=C(COc1ccccc1C(=O)NCC(=O)c1ccccc1)Nc1cccnc1 [Example 208, 2-(2-oxo-2-(pyridin-3-ylamino)ethoxy)-N-(2-oxo-2-phenylethyl)benzamide] | 1.14 | 1.184
CS(=O)(=O)N1CCC(Oc2ccccc2C(=O)NCC(=O)c2ccccc2)CC1 [Example 183, 2-((1-(methylsulfonyl)piperidin-4-yl)oxy)-N-(2-oxo-2-phenylethyl)benzamide] | 0.96 | 1.194
O=C(CNS(=O)(=O)c1cccc([N+](=O)[O-])c1)c1ccccc1 [Example 21, 3-nitro-N-(2-oxo-2-phenylethyl)benzenesulfonamide] | 0.99 | 1.099
Cc1cccc(C(=O)NCC(=O)c2ccc(Cl)cc2)c1 [Example 53, N-(2-(4-chlorophenyl)-2-oxoethyl)-3-methylbenzamide] | 2.02 | 0.9411

Compound | fold induction at 1 µM (KAI1 promoter) | In vivo relative invation [1]
COc1cccc(C(=O)CNC(=O)c2cccc(CN3CCOCC3)c2)c1 [Example 293, N-(2-(3-methoxyphenyl)-2-oxoethyl)-3-(morpholinomethyl)benzamide] | 1.25 | 1.174
C=CCN(CC=C)Cc1ccccc1C(=O)NCC(=O)c1ccccc1 [Example 303, 2-((diallylamino)methyl)-N-(2-oxo-2-phenylethyl)benzamide] | 1.85 | 1.138
O=C(CNC(=O)c1cccc(CN2CCOCC2)c1)c1ccccc1 [Example 252, 3-(morpholinomethyl)-N-(2-oxo-2-phenylethyl)benzamide] | 1.56 | 1.165
O=C(CNC(=O)c1ccc(C(F)(F)F)cc1)c1ccccc1 [Example 32, N-(2-oxo-2-phenylethyl)-4-(trifluoromethyl)benzamide] | 1.02 | 1.383
Cc1ccccc1C(=O)NCC(=O)c1ccc(N(C)C)cc1 [Example 96, N-(2-(4-(dimethylamino)phenyl)-2-oxoethyl)-2-methylbenzamide] | 2.23 | 1.141
CN(C)c1ccc(C(=O)CNC(=O)c2ccccc2Cl)cc1 [Example 93, 2-chloro-N-(2-(4-(dimethylamino)phenyl)-2-oxoethyl)benzamide] | 2.48 | 1.091
CN(Cc1ccccc1)Cc1ccc(C(=O)NCC(=O)c2ccccc2)cc1 [Example 266, 4-((benzyl(methyl)amino)methyl)-N-(2-oxo-2-phenylethyl)benzamide] | 2.21 | 1.401
COc1ccc(C(=O)N2CCC(Oc3ccccc3C(=O)NCC(=O)c3ccccc3)CC2)cc1 [Example 173, 2-((1-(4-methoxybenzoyl)piperidin-4-yl)oxy)-N-(2-oxo-2-phenylethyl)benzamide] | 1.07 | 1.121
O=C(CNC(=O)c1ccc(CN2CCN(c3ccccn3)CC2)cc1)c1ccccc1 [Example 264, N-(2-oxo-2-phenylethyl)-4-((4-(pyridin-2-yl)piperazin-1-yl)methyl)benzamide] | 1.91 | 1.199
CS(=O)(=O)NCC(=O)c1ccccc1 [Example 25, N-(2-oxo-2-phenylethyl)methanesulfonamide] | 1.49 | 1.215
CC(C)(C)CC(=O)NCC(=O)c1ccc(Cl)cc1 [Example 60, N-(2-(4-chlorophenyl)-2-oxoethyl)-3,3-dimethylbutanamide] | 0.81 | 0.9713
CCC(=O)NCC(=O)c1ccc(N(C)C)cc1 [Example 99, N-(2-(4-(dimethylamino)phenyl)-2-oxoethyl)propionamide] | 1.71 | 1.134
COc1cccc(C(=O)CNC(=O)c2cccc(CN(C)C3CCCCC3)c2)c1 [Example 280, 3-((cyclohexyl(methyl)amino)methyl)-N-(2-(3-methoxyphenyl)-2-oxoethyl)benzamide] | 1.63 | 1.195
COc1cccc(C(=O)CNC(=O)c2cccc(CN3CCN(C(=O)OC(C)(C)C)CC3)c2)c1 [Example 289, tert-butyl 4-(3-((2-(3-methoxyphenyl)-2-oxoethyl)carbamoyl)benzyl)piperazine-1-carboxylate] | 1.61 | 1.263
O=C(CNC(=O)c1ccccc1OC1CCN(C(=O)c2ccc(OC(F)(F)F)cc2)CC1)c1ccccc1 [Example 199, N-(2-oxo-2-phenylethyl)-2-((1-(4-(trifluoromethoxy)benzoyl)piperidin-4-yl)oxy)benzamide] | 0.97 | 1.105
CN(C)c1ccc(C(=O)CNC(=O)c2ccc(F)cc2F)cc1 [Example 105, N-(2-(4-(dimethylamino)phenyl)-2-oxoethyl)-2,4ifluorobenzamide] | 1.25 | 1.079
O=C(CNC(=O)c1ccccc1OC(F)(F)F)c1ccccc1 [Example 41, N-(2-oxo-2-phenylethyl)-2-(trifluoromethoxy)benzamide] | 1.19 | 0.7565
Cc1[nH]c(/C=C2\C(=O)Nc3ccc(S(=O)(=O)Cc4c(Cl)cccc4Cl)cc32)c(C)c1C(=O)N1CCC[C@@H]1CN1CCCC1 [PHA, PHA-665752, reference compound] | 1.43 | 
